Columns and labels:
Assay in all cases: relative viability (nuclei count vs DMSO), 5 days (fraction); higher = more cells survive
201T = system: 201T
Procedure, shortened: (§1)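 Lung cancer cell lines were seeded in 1536-well plates and dosed by pin tool the next day, with either a single drug or a fixed anchor-drug dose combined with five library-drug doses (not always all listed) spaced in √10 steps. Five days later, one step fixed the cells and stained their nuclei (final 0.05% Triton X-100, 1% formaldehyde, 1 ug/ml Hoechst), and nuclei were counted on 4× images. Relative viability is the nuclei count in treated wells divided by the count in vehicle wells, and each value is the median of duplicate plates.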

ABC-1 = system: ABC-1
Procedure, shortened: as §1

BEN = system: BEN
Procedure, shortened: as §1

CAL-12T = system: CAL-12T
Procedure, shortened: as §1

COR-L 105 = system: COR-L 105
Procedure, shortened: as §1

EKVX = system: EKVX
Procedure, shortened: as §1

HARA = system: HARA
Procedure, shortened: as §1

HCC-366 = system: HCC-366
Procedure, shortened: as §1

LK-2 = system: LK-2
Procedure, shortened: as §1

LOU-NH91 = system: LOU-NH91
Procedure, shortened: as §1

NCI-H1437 = system: NCI-H1437
Procedure, shortened: as §1

NCI-H1650 = system: NCI-H1650
Procedure, shortened: as §1

NCI-H1666 = system: NCI-H1666
Procedure, shortened: as §1

NCI-H2009 = system: NCI-H2009
Procedure, shortened: as §1

NCI-H2170 = system: NCI-H2170
Procedure, shortened: as §1

NCI-H3122 = system: NCI-H3122
Procedure, shortened: as §1

NCI-H441 = system: NCI-H441
Procedure, shortened: as §1

NCI-H460 = system: NCI-H460
Procedure, shortened: as §1

NCI-H661 = system: NCI-H661
Procedure, shortened: as §1

NCI-H727 = system: NCI-H727
Procedure, shortened: as §1

PC-14 = system: PC-14
Procedure, shortened: as §1

With COc1cc2nccc(Oc3ccc(NC(=O)Nc4cc(C)on4)c(Cl)c3)c2cc1OC [Tivozanib] + CS(=O)(=O)N1CCN(Cc2cc3nc(-c4cccc5[nH]ncc45)nc(N4CCOCC4)c3s2)CC1 [Pictilisib] (partner 1 µM) as the compound, how does the relative viability (201T; first compound 0.005 µM) read?
The relative viability was 0.377.

What about the relative viability (201T; first compound 0.01581 µM) of the same compound?
Its relative viability is 0.69.

What about the relative viability (201T; first compound 0.05 µM) of the same compound?
The relative viability was 0.686.

And the relative viability (201T; first compound 0.1581 µM)?
Its relative viability is 0.588.

What about the relative viability (201T; first compound 0.5 µM) of the same compound?
Its relative viability is 0.632.

What about the relative viability (ABC-1; first compound 0.005 µM) of the same compound?
The relative viability was 0.775.

What about the relative viability (ABC-1; first compound 0.01581 µM) of the same compound?
The relative viability was 0.673.

And the relative viability (ABC-1; first compound 0.05 µM)?
Its relative viability is 0.794.

And the relative viability (ABC-1; first compound 0.1581 µM)?
Its relative viability is 0.646.

And the relative viability (ABC-1; first compound 0.5 µM)?
Its relative viability is 0.326.

What about the relative viability (BEN; first compound 0.005 µM) of the same compound?
Its relative viability is 0.61.

And the relative viability (BEN; first compound 0.01581 µM)?
Its relative viability is 0.541.

And the relative viability (BEN; first compound 0.05 µM)?
The relative viability was 0.603.

And the relative viability (BEN; first compound 0.5 µM)?
Its relative viability is 0.505.

What about the relative viability (CAL-12T; first compound 0.005 µM) of the same compound?
Its relative viability is 0.212.

And the relative viability (CAL-12T; first compound 0.01581 µM)?
The relative viability was 0.445.

And the relative viability (CAL-12T; first compound 0.05 µM)?
Its relative viability is 0.608.

What about the relative viability (CAL-12T; first compound 0.5 µM) of the same compound?
The relative viability was 0.404.

And the relative viability (COR-L 105; first compound 0.01581 µM)?
Its relative viability is 0.405.

And the relative viability (COR-L 105; first compound 0.05 µM)?
Its relative viability is 0.431.

What about the relative viability (COR-L 105; first compound 0.1581 µM) of the same compound?
Its relative viability is 0.347.

What about the relative viability (COR-L 105; first compound 0.5 µM) of the same compound?
Its relative viability is 0.317.

And the relative viability (EKVX; first compound 0.005 µM)?
The relative viability was 0.392.

What about the relative viability (EKVX; first compound 0.01581 µM) of the same compound?
Its relative viability is 0.426.

What about the relative viability (EKVX; first compound 0.05 µM) of the same compound?
Its relative viability is 0.535.

What about the relative viability (EKVX; first compound 0.1581 µM) of the same compound?
Its relative viability is 0.394.

And the relative viability (EKVX; first compound 0.5 µM)?
Its relative viability is 0.497.

What about the relative viability (HARA; first compound 0.005 µM) of the same compound?
Its relative viability is 0.395.

And the relative viability (HARA; first compound 0.01581 µM)?
The relative viability was 0.312.

What about the relative viability (HARA; first compound 0.05 µM) of the same compound?
The relative viability was 0.485.

And the relative viability (HARA; first compound 0.1581 µM)?
The relative viability was 0.309.

And the relative viability (HARA; first compound 0.5 µM)?
The relative viability was 0.603.

What about the relative viability (HCC-366; first compound 0.005 µM) of the same compound?
The relative viability was 0.126.

What about the relative viability (HCC-366; first compound 0.01581 µM) of the same compound?
The relative viability was 0.179.

And the relative viability (HCC-366; first compound 0.05 µM)?
The relative viability was 0.103.

What about the relative viability (HCC-366; first compound 0.1581 µM) of the same compound?
The relative viability was 0.189.

And the relative viability (HCC-366; first compound 0.5 µM)?
Its relative viability is 0.175.

What about the relative viability (LK-2; first compound 0.005 µM) of the same compound?
Its relative viability is 0.574.

And the relative viability (LK-2; first compound 0.01581 µM)?
Its relative viability is 0.472.

What about the relative viability (LK-2; first compound 0.05 µM) of the same compound?
The relative viability was 0.6.

What about the relative viability (LK-2; first compound 0.1581 µM) of the same compound?
The relative viability was 0.459.

What about the relative viability (LK-2; first compound 0.5 µM) of the same compound?
Its relative viability is 0.909.

What about the relative viability (LOU-NH91; first compound 0.005 µM) of the same compound?
The relative viability was 0.467.

What about the relative viability (LOU-NH91; first compound 0.01581 µM) of the same compound?
Its relative viability is 0.519.

What about the relative viability (LOU-NH91; first compound 0.05 µM) of the same compound?
The relative viability was 0.559.

What about the relative viability (LOU-NH91; first compound 0.1581 µM) of the same compound?
The relative viability was 0.485.

And the relative viability (LOU-NH91; first compound 0.5 µM)?
Its relative viability is 0.526.

And the relative viability (NCI-H1437; first compound 0.005 µM)?
Its relative viability is 0.347.

And the relative viability (NCI-H1437; first compound 0.01581 µM)?
Its relative viability is 0.463.

And the relative viability (NCI-H1437; first compound 0.05 µM)?
The relative viability was 0.401.

And the relative viability (NCI-H1437; first compound 0.1581 µM)?
Its relative viability is 0.177.

And the relative viability (NCI-H1437; first compound 0.5 µM)?
The relative viability was 0.52.

What about the relative viability (NCI-H1650; first compound 0.005 µM) of the same compound?
Its relative viability is 0.561.

What about the relative viability (NCI-H1650; first compound 0.01581 µM) of the same compound?
The relative viability was 0.594.

What about the relative viability (NCI-H1650; first compound 0.05 µM) of the same compound?
Its relative viability is 0.621.

What about the relative viability (NCI-H1650; first compound 0.1581 µM) of the same compound?
The relative viability was 0.558.

And the relative viability (NCI-H1650; first compound 0.5 µM)?
The relative viability was 0.498.

What about the relative viability (NCI-H1666; first compound 0.005 µM) of the same compound?
The relative viability was 0.404.

And the relative viability (NCI-H1666; first compound 0.01581 µM)?
The relative viability was 0.393.

What about the relative viability (NCI-H1666; first compound 0.05 µM) of the same compound?
Its relative viability is 0.384.

What about the relative viability (NCI-H1666; first compound 0.1581 µM) of the same compound?
Its relative viability is 0.389.

What about the relative viability (NCI-H1666; first compound 0.5 µM) of the same compound?
The relative viability was 0.478.

And the relative viability (NCI-H2009; first compound 0.005 µM)?
Its relative viability is 0.811.

What about the relative viability (NCI-H2009; first compound 0.01581 µM) of the same compound?
Its relative viability is 0.776.

And the relative viability (NCI-H2009; first compound 0.05 µM)?
Its relative viability is 0.833.

And the relative viability (NCI-H2009; first compound 0.1581 µM)?
The relative viability was 0.633.

What about the relative viability (NCI-H2009; first compound 0.5 µM) of the same compound?
The relative viability was 0.663.

What about the relative viability (NCI-H2170; first compound 0.005 µM) of the same compound?
The relative viability was 0.312.

What about the relative viability (NCI-H2170; first compound 0.01581 µM) of the same compound?
Its relative viability is 0.344.

What about the relative viability (NCI-H2170; first compound 0.05 µM) of the same compound?
Its relative viability is 0.404.

And the relative viability (NCI-H2170; first compound 0.5 µM)?
Its relative viability is 0.335.

What about the relative viability (NCI-H3122; first compound 0.005 µM) of the same compound?
Its relative viability is 0.568.

What about the relative viability (NCI-H3122; first compound 0.01581 µM) of the same compound?
Its relative viability is 0.547.

What about the relative viability (NCI-H3122; first compound 0.05 µM) of the same compound?
The relative viability was 0.598.

What about the relative viability (NCI-H3122; first compound 0.1581 µM) of the same compound?
The relative viability was 0.644.

What about the relative viability (NCI-H3122; first compound 0.5 µM) of the same compound?
Its relative viability is 0.789.

What about the relative viability (NCI-H441; first compound 0.005 µM) of the same compound?
The relative viability was 0.571.

And the relative viability (NCI-H441; first compound 0.01581 µM)?
The relative viability was 0.511.

What about the relative viability (NCI-H441; first compound 0.05 µM) of the same compound?
The relative viability was 0.536.

What about the relative viability (NCI-H441; first compound 0.1581 µM) of the same compound?
Its relative viability is 0.484.

What about the relative viability (NCI-H441; first compound 0.5 µM) of the same compound?
The relative viability was 0.31.

And the relative viability (NCI-H460; first compound 0.005 µM)?
Its relative viability is 0.337.

What about the relative viability (NCI-H460; first compound 0.01581 µM) of the same compound?
Its relative viability is 0.296.

What about the relative viability (NCI-H460; first compound 0.05 µM) of the same compound?
Its relative viability is 0.449.

What about the relative viability (NCI-H460; first compound 0.1581 µM) of the same compound?
Its relative viability is 0.253.

What about the relative viability (NCI-H460; first compound 0.5 µM) of the same compound?
The relative viability was 0.36.

What about the relative viability (NCI-H661; first compound 0.005 µM) of the same compound?
The relative viability was 0.37.

What about the relative viability (NCI-H661; first compound 0.01581 µM) of the same compound?
The relative viability was 0.339.

And the relative viability (NCI-H661; first compound 0.05 µM)?
The relative viability was 0.55.

And the relative viability (NCI-H661; first compound 0.1581 µM)?
Its relative viability is 0.28.

And the relative viability (NCI-H661; first compound 0.5 µM)?
Its relative viability is 0.38.

What about the relative viability (NCI-H727; first compound 0.005 µM) of the same compound?
The relative viability was 0.349.

And the relative viability (NCI-H727; first compound 0.01581 µM)?
The relative viability was 0.56.

What about the relative viability (NCI-H727; first compound 0.05 µM) of the same compound?
The relative viability was 0.351.

And the relative viability (NCI-H727; first compound 0.5 µM)?
The relative viability was 0.398.

What about the relative viability (PC-14; first compound 0.005 µM) of the same compound?
The relative viability was 0.631.

What about the relative viability (PC-14; first compound 0.01581 µM) of the same compound?
The relative viability was 0.604.

And the relative viability (PC-14; first compound 0.05 µM)?
The relative viability was 0.693.

And the relative viability (PC-14; first compound 0.1581 µM)?
The relative viability was 0.51.

What about the relative viability (PC-14; first compound 0.5 µM) of the same compound?
Its relative viability is 0.635.

From the supplement of paper PMC10307832
